In ChEMBL document CHEMBL2177024 (J Med Chem, 2012):

Tests used:
Beta-secretase 1 [1] = target: T1, Beta-secretase 1 (Homo sapiens, UniProt P56817)
Beta-secretase 1 [2] = target: T1, Beta-secretase 1; remark: listed apart in the source
Description: Inhibition of BACE1 in human neuroblastoma cells

Cathepsin D = Cathepsin D (Homo sapiens, UniProt P07339)
Cathepsin D, sequence (P07339 65-162 limits assumed): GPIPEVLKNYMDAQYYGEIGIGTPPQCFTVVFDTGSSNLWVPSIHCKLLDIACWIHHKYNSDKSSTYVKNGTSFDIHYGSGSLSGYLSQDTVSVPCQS
Cathepsin D, sequence (P07339 169-412 limits assumed): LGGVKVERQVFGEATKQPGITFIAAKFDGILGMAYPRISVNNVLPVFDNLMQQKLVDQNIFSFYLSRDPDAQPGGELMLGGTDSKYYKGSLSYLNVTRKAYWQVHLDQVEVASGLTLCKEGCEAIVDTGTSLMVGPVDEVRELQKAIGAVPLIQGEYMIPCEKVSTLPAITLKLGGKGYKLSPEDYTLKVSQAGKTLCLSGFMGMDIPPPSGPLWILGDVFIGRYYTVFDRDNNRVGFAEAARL
Description: Inhibition of human cathepsin D

T1 sequence (P56817 whole entry): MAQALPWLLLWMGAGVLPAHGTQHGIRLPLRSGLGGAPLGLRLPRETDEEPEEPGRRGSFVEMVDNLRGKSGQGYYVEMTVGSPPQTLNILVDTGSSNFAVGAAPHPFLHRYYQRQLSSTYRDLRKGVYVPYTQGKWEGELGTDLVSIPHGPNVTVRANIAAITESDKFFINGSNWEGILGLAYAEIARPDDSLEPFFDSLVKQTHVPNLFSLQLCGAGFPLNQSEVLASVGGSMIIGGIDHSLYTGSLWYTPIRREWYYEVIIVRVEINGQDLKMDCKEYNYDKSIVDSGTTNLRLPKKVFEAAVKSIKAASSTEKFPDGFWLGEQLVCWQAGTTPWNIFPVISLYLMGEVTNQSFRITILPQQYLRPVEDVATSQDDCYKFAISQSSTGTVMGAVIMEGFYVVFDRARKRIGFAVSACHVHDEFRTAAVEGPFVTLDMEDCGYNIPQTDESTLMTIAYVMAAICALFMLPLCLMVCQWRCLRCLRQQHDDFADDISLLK

SMILES | Ki (Beta-secretase 1 [1]) | IC50 (Beta-secretase 1 [2]) | Ki (Cathepsin D)
CC(C)CNC[C@@H](NC[C@H](Cc1ccccc1)NC(=O)c1cc(C(=O)N[C@H](C)c2ccccc2)cc(N(C)S(C)(=O)=O)c1)[C@H](C)O | > 1000 nM |  | 
CCC[C@H](O)[C@H](NC[C@H](Cc1ccccc1)NC(=O)c1cc2c3c(c1)c(CC)cn3CC1(CC1)S(=O)(=O)N2C)C(=O)NC(C)C | 0.47 nM | 14 nM | 2000 nM
